This note sets out measurements from ChEMBL document CHEMBL1201862, “PubChem BioAssay data set” (2004).

Test in all cases: NCI tumour cell line growth inhibition, 48 h
For assay [1], the system named is COLO 205.
Assay [2] has as its system EKVX.
For assay [3], the system named is HCT-116.
The test system of assay [4] is HL-60.
Assay [5] relates to HOP-92.
The test system of assay [6] is IGROV-1.
For assay [7], the system named is M14.
The test system of assay [8] is MOLT-4.
The subject of assay [9] is OVCAR-8.
Assay [10] concerns RXF 393.
Assay [11] relates to SF-268.
The test system of assay [12] is SF-539.
The subject of assay [13] is SK-MEL-28.
For assay [14], the system named is SK-OV-3.
Assay [15] concerns SN12C.
Assay [16] concerns UACC-62.
The test system of assay [17] is UO-31.
The subject of assay [18] is NCI-H522.
The subject of assay [19] is RPMI-8226.

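Test compounds were applied to cells in 96-well plates for 48 hours at 5 doses. GI50 marks 50% less growth.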 The source made the active and inactive calls. Rule as the data show it: active = GI50 up to about 1.1 µM and inactive = higher. Peptide text beside a SMILES is read from it. * marks the point of attachment. Cbz = O=C(OCc1ccccc1)*; NHNH2 = NN*

On to `N#CC1=C(N)Oc2c(ccc3cccnc23)C1c1ccccc1` (centres undefined), for which the GI50 in [1] is 1.24 µM (inactive); in assay [2], 4.78 µM (inactive); in assay [3], 0.562 µM (active); in assay [4], 0.267 µM (active); in [5], 9.35 µM (inactive); in assay [6], 0.847 µM (active). In addition, the GI50 in assay [7] was 0.57 µM (active); in assay [8], 0.667 µM (active); in assay [9], 3.38 µM (inactive); in [10], 2.13 µM (inactive); in assay [11], 2.73 µM (inactive); in assay [12], 1.25 µM (inactive). For the same compound, the GI50 in assay [13] was 6.12 µM (inactive); in assay [14] it was 0.731 µM (active); in [15] it was 3.3 µM (inactive); in assay [16], 0.697 µM (active); in [17], 4.46 µM (inactive).

On to `CCCC/C=C1\CCC(CN2CCCC2)C1=O` (centres undefined), for which the GI50 in [1] was 12.9 µM (inactive); in [2], 3.98 µM (inactive); in assay [3], 14.3 µM (inactive); in assay [4], 8.61 µM (inactive); in assay [5] it was 12.1 µM (inactive); in assay [6], 18.4 µM (inactive). Moreover, the GI50 is 11.2 µM (inactive) in assay [7]; 3.57 µM (inactive) in assay [8]; 15.1 µM (inactive) in [9]; 16 µM (inactive) in assay [11]; 16.1 µM (inactive) in assay [12]; 15.7 µM (inactive) in [13]. For the same compound, the GI50 was 28.5 µM (inactive) in [14], 17.9 µM (inactive) in assay [15], 17.1 µM (inactive) in assay [16] and 17.2 µM (inactive) in assay [17].

In the case of `Cc1nc2c(n1CC(C)(C)C)C(=O)c1ccccc1C2=O`, the GI50 is > 100 µM (inactive) in assay [1]; > 100 µM (inactive) in assay [2]; 79.3 µM (inactive) in assay [3]; 36.1 µM (inactive) in assay [4]; 16.7 µM (inactive) in assay [5]; > 100 µM (inactive) in [6]. For the same compound, the GI50 in [7] was > 100 µM (inactive); in [8], 91.2 µM (inactive); in [18], 92.7 µM (inactive); in assay [9] it was > 100 µM (inactive); in assay [10] it was > 100 µM (inactive); in assay [11], > 100 µM (inactive). Besides, the GI50 is > 100 µM (inactive) in assay [12]; > 100 µM (inactive) in [13]; > 100 µM (inactive) in assay [14]; > 100 µM (inactive) in assay [15]; 89.5 µM (inactive) in [16]; > 100 µM (inactive) in assay [17].

With `Cc1nc(Nc2ccccc2)sc1C(=O)CC(=O)C(=O)NC12CC3CC(CC(C3)C1)C2`, the GI50 in [1] is > 100 µM (inactive); in [2] it was 7.21 µM (inactive); in assay [3], > 100 µM (inactive); in assay [4], 92.3 µM (inactive); in [5] it was 23 µM (inactive); in assay [6], 84.5 µM (inactive). In addition, the GI50 in [7] is > 100 µM (inactive); in assay [8], > 100 µM (inactive); in [18], 79.6 µM (inactive); in [9] it was > 100 µM (inactive); in [10], 54.6 µM (inactive); in [11] it was > 100 µM (inactive). Also, the GI50 in [12] is > 100 µM (inactive); in [13] it was > 100 µM (inactive); in assay [14], > 100 µM (inactive); in assay [15] it was > 100 µM (inactive); in assay [16] it was 41.4 µM (inactive); in assay [17], 92.3 µM (inactive).

Turning to `COC(=O)c1ccc(C(=O)OC)c2nc3cc(Cl)ccc3nc12`, the GI50 in [1], in [2], in assay [3], in assay [4], in [5] and in assay [6] was > 100 µM (inactive) in each case. The GI50 in assay [7], in assay [8], in [18], in assay [9], in [19] and in [11] was > 100 µM (inactive) in each case. Further, the GI50 in [12], in assay [13], in assay [14], in [15], in assay [16] and in assay [17] was > 100 µM (inactive) in each case.

As for `CCOC(=O)C1=C(C)N(NC(=O)Nc2ccccc2)C2(N)N(NC(=O)Nc3ccccc3)C(C)=C(C(=O)OCC)C12C#N` (centres undefined), the GI50 was 17.7 µM (inactive) in [1]; 17.5 µM (inactive) in assay [3]; 20.2 µM (inactive) in assay [5]; 19.7 µM (inactive) in assay [6]; 19.9 µM (inactive) in assay [7]; 21.6 µM (inactive) in assay [8]. Further, the GI50 is 18.9 µM (inactive) in assay [18]; 18.5 µM (inactive) in assay [9]; 22 µM (inactive) in assay [19]; 13.6 µM (inactive) in [10]; 19.9 µM (inactive) in [11]; 16.9 µM (inactive) in assay [13]. Also, the GI50 is 25.5 µM (inactive) in assay [14], 17.6 µM (inactive) in assay [15], 17.5 µM (inactive) in assay [16] and > 100 µM (inactive) in [17].

Turning to `Cc1nc(O)nc(CC(O)(c2ccccc2)c2ccccc2)c1-c1ccccc1`, the GI50 in assay [1] is > 100 µM (inactive); in assay [2] it was > 100 µM (inactive); in assay [3], > 100 µM (inactive); in assay [4], > 100 µM (inactive); in assay [5], 55.8 µM (inactive); in [6], > 100 µM (inactive). In addition, the GI50 in assay [7] was > 100 µM (inactive); in assay [8] it was > 100 µM (inactive); in assay [18] it was 58.5 µM (inactive); in assay [9] it was > 100 µM (inactive); in assay [10] it was > 100 µM (inactive); in assay [11] it was > 100 µM (inactive). In addition, the GI50 in assay [12] was > 100 µM (inactive); in assay [13], > 100 µM (inactive); in [14] it was > 100 µM (inactive); in assay [15], > 100 µM (inactive); in assay [16], > 100 µM (inactive); in assay [17], 50.1 µM (inactive).

With `CC1CC/C(=C\c2ccc(F)cc2)C2=C1C(c1ccc(F)cc1)n1c(s/c(=C/c3cccc(Br)c3)c1=O)=N2` (centres undefined), the GI50 in assay [2], in assay [3], in assay [4], in assay [5], in assay [6] and in assay [7] was > 100 µM (inactive) each time. The GI50 in [8], in assay [9], in assay [19], in assay [10], in assay [11] and in assay [13] was > 100 µM (inactive) each time. Besides, the GI50 in assay [14], in [15] and in assay [16] was > 100 µM (inactive) throughout.

As to `COC(=O)CC(NC(=O)OCc1ccccc1)C(=O)NC(CC(=O)OC)C(=O)NC(CC(=O)OC)C(=O)NC(CC(=O)OC)C(=O)NC(CC(=O)OC)C(=O)NC(CC(=O)OC)C(=O)NN` (centres undefined) (Cbz-D(OMe)D(OMe)D(OMe)D(OMe)D(OMe)D(OMe)-NHNH2; configuration not given here), the GI50 in assay [1], in [3], in assay [4], in [5], in assay [6] and in assay [7] was > 100 µM (inactive) in each case. Also, the GI50 in [8], in assay [9], in assay [19], in assay [11], in assay [12] and in assay [13] was > 100 µM (inactive) in each case. Also, the GI50 in assay [14], in assay [15], in assay [16] and in [17] was > 100 µM (inactive) each time.

`CCOC(=O)[C@H]1Nc2ccc(OC)cc2C2c3ccccc3CC21` (some centres undefined): the GI50 in assay [1], in assay [3], in assay [6], in [7], in [8] and in assay [18] was > 100 µM (inactive) each time. For the same compound, the GI50 was > 100 µM (inactive) in assay [9]; > 100 µM (inactive) in [19]; 37.5 µM (inactive) in [10]; > 100 µM (inactive) in assay [11]; > 100 µM (inactive) in assay [12]; > 100 µM (inactive) in assay [13]. Besides, the GI50 in assay [15], in assay [16] and in [17] was > 100 µM (inactive) each time.

As for `[N-]=[N+]=NC12CC3C4CC5CC3C(C1)C(C5)C4C2`, the GI50 in assay [1], in [2], in assay [3], in [5], in assay [6] and in assay [7] was > 100 µM (inactive) in each case. Besides, the GI50 in assay [8], in assay [18], in [9], in assay [19], in assay [11] and in [12] was > 100 µM (inactive) throughout. Besides, the GI50 in assay [13], in [14], in assay [15], in assay [16] and in assay [17] was > 100 µM (inactive) in each case.
